In one series the test system is human erythrocytes. Description: Haemolytic activity. It is filed as cell-based. As for the experimental part: The haemolytic activity of the peptides was evaluated using a standard procedure with minor adjustments. Fresh human erythrocytes were washed thrice and subsequently resuspended at 1.25% haematocrit in PBS. Forty microlitres PBS-diluted peptide solution was added to a 96-well plate (Corning Inc., Lowell, MA, USA), and 160 μL of erythrocytes was added. After incubation at 37 °C for 30 min, the samples were centrifuged, and the absorbance of the supernatant was measured at 450 nm using a multi-well microplate reader (SpectraMax M5; Molecular Devices, Sunnyvale, CA, USA) and compared with the 100% haemolysis caused by 0.1% Triton X-100. The percentage of haemolysis was calculated according to the equation: Haemolysis%=Asample−Ablank/Atriton−Ablank×100

The subject of series [1] is Gram-positive bacteria (S. aureus, S. epidermidis). In words: Geometric mean of MICs against Gram-positive bacteria. The class given is cell-based. On the set-up: unit not given here. The protocol:
(§1) The antibacterial activities of the peptides against […] were evaluated using a modified version of the Clinical Laboratory and Standards Institute (CLSI) broth microdilution method, as previously described. Briefly, the bacteria were cultured in liquid LB medium (comprising 10 g/L tryptone, 5 g/L yeast extract, and 10 g/L NaCl) at 37 °C until reaching mid-log phase. Subsequently, the bacterial concentration was adjusted to 1 × 10^6 colony-forming units (CFU)/mL. The peptides were then diluted serially with phosphate-buffered saline (PBS), followed by the addition of 50 μL of the diluted peptides to 50 μL of the bacterial suspension in a 96-well plate (Corning Inc., Lowell, MA, USA). After incubating at 37 °C for 18 to 20 h, the absorbance of each well was measured using a multi-well microplate reader (SpectraMax M5; Molecular Devices, Sunnyvale, CA, USA) at 600 nm.

For the next series, the system named is five bacterial strains. In words: MICs against all five bacterial strains (geometric mean, range). It is filed as cell-based. Details: unit not given here. Particulars: geometric mean of MICs against all five bacterial strains. As for the experimental part: as §1
The nature of series [2]: Reversed-phase HPLC retention time as measure of peptide hydrophobicity. The class given is physicochemical. Particulars: retention time by reverse-phase HPLC, reflects hydrophobicity difference between analogues. The text has this:
The physicochemical parameters crucial for the antimicrobial activity of AMPs have been identified, encompassing net charge, helicity, hydrophobicity, and amphipathicity. The hydropathicity, mean relative hydrophobic moment, and charge of peptides were predicted using the HeliQuest (https://heliquest.ipmc.cnrs.fr/ (accessed on 12 March 2024)). Lysine is a hydrophilic amino acid, and its substitution leads to a decrease in the hydrophobicity of the SAAP-148 analogue. The anticipated results are consistent, with the degree of reduction in […] varying depending on the position at which lysine is substituted (Table 2). The amphipathicity of the peptides, as denoted by the μH (mean relative hydrophobic moment), is elaborated on in Table 2. The hydrophobic moment of SAAP-148 analogues was decreased except for SAAP-10, which is on account of the substitution occurring on the18th residue. (Figure 1) The 18th residue of SAAP-148 is glutamine, a polar amino acid residue, located at the junction of the hydrophobic and hydrophilic surfaces of the SAAP-148 α-helix. […] The retention time data determined by reversed-phase high-performance liquid chromatography (RP-HPLC) reflects the hydrophobicity difference between peptide analogues. It is well documented that the formation of a hydrophobic-binding domain due to peptide secondary structure can affect peptide interactions with reversed-phase matrices. This effect was observed particularly for amphipathic α-helical peptides. Given this preferred binding domain, amphipathic α-helical peptides are considerably more retentive than non-amphipathic peptides with the same amino acid composition.
This phenomenon was particularly evident in the case of amphipathic α-helical peptides. […] This discrepancy may be attributed to the lack of a well-defined α-helical structure in SAAP-148 and its analogues (Figure S1).

Series [3] has as its system Gram-negative bacteria (E. coli, P. aeruginosa, K. pneumoniae). In words: Geometric mean of MICs against Gram-negative bacteria. The class given is cell-based. On the set-up: unit not given here. The protocol:
as §1

Series [4] has as its system human erythrocytes versus five bacterial strains. Description: Therapeutic index (MHC/GM of MIC). The settings on record: for Fold (TI of analogue compared with SAAP-148): TI change relative to SAAP-148; for TI (MHC/MIC): ratio of MHC to geometric mean of MIC (five strains). The protocol: The geometric mean of minimum inhibitory concentration (MIC) values (GM) from the five strains was calculated to provide a comprehensive assessment of antimicrobial activity, as presented in Table 4.
The therapeutic index (TI) is a widely utilized parameter for indicating the specificity of antimicrobial agents, which is determined by the ratio of MHC (hemolytic activity) and MIC (antimicrobial activity). Consequently, larger TI values signify greater antimicrobial specificity. The TI can be enhanced through one of three mechanisms: increasing antimicrobial activity, reducing hemolytic activity while maintaining antimicrobial activity, or a combination of both augmenting antimicrobial activity and diminishing hemolytic activity.

The nature of series [5]: CD spectra, secondary structure by BeStSel. It is filed as physicochemical. Particulars: 30 μM SDS as printed, 100 μM peptide, 25 °C. The protocol: CD spectra (Figure S1) were acquired using a JASCO J-1500 spectropolarimeter (JASCO Inc., Easton, MD, USA) in 0.1 cm pathlength cells under nitrogen at 25 °C. The spectra were recorded in the range of 190 to 250 nm at a peptide concentration of 100 μM in SDS. Secondary structure was determined using the BeStSel server. Hydropathicity, mean relative hydrophobic moment, and charge of peptides were predicted using the HeliQuest (https://heliquest.ipmc.cnrs.fr/ (accessed on 12 March 2024)). The 3D structure of SAAP-148 and its analogues (Figure S2) was predicted using PEP-FOLD4 servers (https://bioserv.rpbs.univ-paris-diderot.fr/services/PEP-FOLD4/ (accessed on 19 June 2024)).

Series [6] concerns Klebsiella pneumonia (1.1736). It is filed as cell-based, Klebsiella pneumoniae.
Text: (§2) The LL-37, SAAP-148 and its analogues peptides were synthesized according to the standard Fmoc procedure. The Fmoc-protected resin and monomers are first treated with a basic solvent (piperidine) to remove the amino protecting groups. The carboxyl group of the next amino acid is activated by an activator. The activated monomer reacts with the free amino group to form a peptide bond. These two steps are repeated in a cycle until the synthesis is complete. After synthesis, the peptide is eluted from the column and purified by reverse-phase semipreparative high-performance liquid chromatography as detailed in Table 1. The peptides were dissolved in PBS to create a 1000 μmol/L stock solution for subsequent use. The purity of the synthetic peptide exceeded 95%. Blood samples from healthy donors were obtained from the Fifth Medical Center of Chinese PLA General Hospital (Beijing, China). Human normal lung epithelial cells (BEAS-2B) and mouse mononuclear macrophages cells (RAW 264.7) were sourced from Beyotime Biotechnology (Beijing, China), along with the Enhanced Cell Counting Kit-8 (CCK-8) and nitric oxide detection kit. RPMI-1640 and DMEM were procured from Merck (Darmstadt, Germany), while FBS was obtained from ExCell Bio (Shanghai, China). LPS-B5 (from E. coli 055:B5) was procured from Invivogen (Toulouse, France). Five bacterial strains, including Escherichia coli (1.8732), Pseudomonas aeruginosa (1.2421), Klebsiella pneumonia (1.1736) as Gram-negative bacteria, and Staphylococcus aureus (1.8721) and Staphylococcus epidermidis (1.4260) as Gram-positive bacteria, were procured from the China General Microbiological Culture Collection Centre (CGMCC) (Beijing, China).
as §1

The test system of series [7] is Pseudomonas aeruginosa (1.2421). It is filed as cell-based.
Text: as §2, §1

Series [8] relates to Staphylococcus epidermidis (1.4260). The class given is cell-based.
Text: as §2, §1

The test system of series [9] is Staphylococcus aureus (1.8721). It is filed as cell-based.
Text: as §2, §1

Series [10] has as its system Escherichia coli (1.8732). It is filed as cell-based.
Text: as §2, §1

Ends that are not written are not given here.

Take KKRVWKRVFKLLKRYWRQLKKPVR-NH2 [SAAP-1]: the “haemolytic activity compared with SAAP-148” value in the series with human erythrocytes is reported as “comparable hemolytic activity to SAAP-148”. The “GM to G+” value in series [1] is on record as 12.51. Also, in the series with five bacterial strains, the “MIC (GM)” value is recorded as 6.25. Also, the “Rt” value in series [2] is on record as 11.419 min. The “GM to G−” value in [3] is on record as 3.94. Also, in series [4], the “Fold (TI of analogue compared with SAAP-148)” value turned out to be 1.1 and the “TI (MHC/MIC)” value was 0.12. Also, in series [5], the Others is listed as 0%, the Turn amounted to 0%, the α-Helix is listed as 93.5% and the β-Antiparallel is given as 6.5%. In addition, the β-Parallel in series [5] was 0%. In series [6], the “MIC K. pneumoniae” value was determined as 6.25 µM. In addition, the “MIC P. aeruginosa” value in [7] is 3.13 µM. In addition, the “MIC S. epidermidis” value in series [8] is 3.13 µM. In series [9], the “MIC S. aureus” value is 50.00 µM. Moreover, the “MIC E. coli” value in series [10] was 3.13 µM.

For the substance LKRKWKRVFKLLKRYWRQLKKPVR-NH2 [SAAP-2], the “haemolytic activity compared with SAAP-148” value in the series with human erythrocytes is given as “comparable hemolytic activity to SAAP-148”. Further, in series [1], the “GM to G+” value is recorded as 12.51. The “MIC (GM)” value in the series on five bacterial strains was 7.18. In addition, the “Rt” value in series [2] came out at 12.532 min. The “GM to G−” value in series [3] stood at 4.97. Besides, in series [4], the “Fold (TI of analogue compared with SAAP-148)” value was 1 and the “TI (MHC/MIC)” value stood at 0.11. Further, in series [5], the Others came out at 0%, the Turn was determined as 0%, the α-Helix amounted to 93.5% and the β-Antiparallel turned out to be 6.5%. The β-Parallel in [5] turned out to be 0%. In addition, the “MIC K. pneumoniae” value in series [6] was 12.50 µM. The “MIC P. aeruginosa” value in series [7] worked out at 3.13 µM. Also, the “MIC S. epidermidis” value in [8] was 3.13 µM. For the same substance, the “MIC S. aureus” value in series [9] came out at 50.00 µM. For the same substance, the “MIC E. coli” value in series [10] was 3.13 µM.

On to LKRVWKRVFKLLKRYWRKLKKPVR-NH2 [SAAP-10], for which, in the series with human erythrocytes, the “haemolytic activity compared with SAAP-148” value is “comparable hemolytic activity to SAAP-148”. Also, in series [1], the “GM to G+” value is 12.51. For the same substance, in the series with five bacterial strains, the “MIC (GM)” value is 10.88. For the same substance, in [2], the “Rt” value was found to be 13.69 min. Moreover, the “GM to G−” value in series [3] worked out at 9.92. Further, in series [4], the “Fold (TI of analogue compared with SAAP-148)” value is reported as 0.64 and the “TI (MHC/MIC)” value is 0.07. In addition, in series [5], the Others is given as 0%, the Turn is 0%, the α-Helix turned out to be 100% and the β-Antiparallel was 0%. Besides, in series [5], the β-Parallel amounted to 0%. Also, the “MIC K. pneumoniae” value in series [6] is 25.00 µM. Moreover, the “MIC P. aeruginosa” value in series [7] came to 6.25 µM. Also, in [8], the “MIC S. epidermidis” value amounted to 3.13 µM. For the same substance, in series [9], the “MIC S. aureus” value amounted to 50.00 µM. In [10], the “MIC E. coli” value was determined as 6.25 µM.

Consider LKRVWKRVFKLLKRYWRQLKKKVR-NH2 [SAAP-12], for which the “haemolytic activity compared with SAAP-148” value in the series with human erythrocytes is given as “comparable hemolytic activity to SAAP-148”. For the same substance, the “GM to G+” value in series [1] is on record as 12.5. Further, the “MIC (GM)” value against five bacterial strains is recorded as 18.95. In series [2], the “Rt” value was 16.604 min. Further, the “GM to G−” value in [3] is recorded as 25. Further, in series [4], the “Fold (TI of analogue compared with SAAP-148)” value is on record as 0.36 and the “TI (MHC/MIC)” value is 0.04. In [5], this substance gave an Others of 0%, a Turn of 0%, a α-Helix of 100% and a β-Antiparallel of 0%. This substance also came in with a β-Parallel in series [5] of 0%. Also, in [6], the “MIC K. pneumoniae” value was found to be 100.00 µM. For the same substance, the “MIC P. aeruginosa” value in [7] worked out at 12.50 µM. Also, the “MIC S. epidermidis” value in series [8] came to 6.25 µM. Besides, in [9], the “MIC S. aureus” value turned out to be 25.00 µM. Moreover, in [10], the “MIC E. coli” value worked out at 12.50 µM.

As for LKRVWKRKFKLLKRYWRQLKKPVR-NH2 [SAAP-4], the “fold increase of MHC over that of SAAP-148” value with human erythrocytes is listed as 133.33 fold. Also, in [1], the “GM to G+” value is listed as 17.69. Besides, the “MIC (GM)” value in the series on five bacterial strains is recorded as 10.88. For the same substance, in [2], the “Rt” value was determined as 9.96 min. The “GM to G−” value in series [3] is on record as 7.87. For the same substance, in [4], the “Fold (TI of analogue compared with SAAP-148)” value is reported as 83.55 and the “TI (MHC/MIC)” value amounted to 9.19. Besides, in series [5], the Others amounted to 3.6%, the Turn is on record as 0%, the α-Helix was found to be 50.9% and the β-Antiparallel is 45.5%. This substance also showed a β-Parallel in [5] of 0%. In [6], the “MIC K. pneumoniae” value is 100.00 µM. Besides, in [7], the “MIC P. aeruginosa” value worked out at 3.13 µM. Further, the “MIC S. epidermidis” value in series [8] was determined as 3.13 µM. Moreover, in [9], the “MIC S. aureus” value worked out at 100.00 µM. The “MIC E. coli” value in [10] was found to be 1.56 µM.

These data come from publication PMC11546786, “Designing Analogs of SAAP-148 with Enhanced Antimicrobial and Anti-LPS Activities” (International Journal of Molecular Sciences, 2024).
